According to ChEMBL document CHEMBL1201862, “PubChem BioAssay data set” (2004):
The source made the active and inactive calls.

Tests used:
[1] = system: Streptococcus sp. 'group A'; test: Streptococcus pyogenes SK(-)GAS viability under kanamycin – luminescence, BacTiterGlo, confirmation, counter-screen for streptokinase expression inhibitor project, dose response (AID 1900); type: functional, organism-based
[2] = system: Streptococcus; test: GAS UMAA2166 growth inhibition – luminescence, BacTiterGlo, counter-screen for streptokinase expression inhibitor project, dose response (AID 1915); type: functional, organism-based;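 further: potency for reduction of bacterial viability or growth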
[3] = system: CHO-K1; test: (§1) Counterscreen for antagonists of the orexin 1 receptor (OX1R; HCRTR1): Homogeneous time resolved fluorescence (HTRF)-based cell-based dose response assay to identify antagonists of the parental CHO-K1 cell line. [Related pubchem assays (depositor defined):AID434989, AID435008, AID463079, AID485270, AID492963, AID492964, AID492965, AID493232, AID504699, AID504701]; type: functional; details: Cricetulus griseus
[4] = as §1, with “Fluorescence-based” for “Homogeneous time resolved fluorescence (HTRF)-based”, “cell-based high throughput” for “cell-based”, “CHO” for “CHO-K1”; type: functional
[5] = target: T1, Orexin/Hypocretin receptor type 1 (Homo sapiens, UniProt O43613); test: Homogeneous Time Resolved Fluorescence (HTRF)-based cell-based high throughput dose response assay for antagonists of the orexin 1 receptor (OX1R; HCRTR1). [Related pubchem assays (depositor defined):AID434989, AID435008, AID463079, AID485270, AID492963, AID492964, AID492965, AID493232, AID504717, AID504718]; type: functional
[6] = target: T1, Orexin/Hypocretin receptor type 1; test: Fluorescence-based cell-based high throughput dose response assay for antagonists of the orexin 1 receptor (OX1R; HCRTR1). [Related pubchem assays (depositor defined):AID434989, AID435008, AID463079, AID485270, AID492963, AID492964, AID492965, AID493232, AID504717, AID504718]; type: functional
[7] = target: T2, Orexin receptor type 2 (Homo sapiens, UniProt O43614); test: Counterscreen assay for antagonists of the orexin 1 receptor (OX1R; HCRTR1): Fluorescence-based cell-based dose response assay for antagonists of the orexin 2 receptor (OX2R; HCRTR2), run by assay provider.; type: functional
[8] = target: T2, Orexin receptor type 2; test: Counterscreen assay for antagonists of the orexin 1 receptor (OX1R; HCRTR1): Homogeneous Time Resolved Fluorescence (HTRF)-based cell-based dose response assay for antagonists of the orexin 2 receptor (OX2R; HCRTR2), run by assay provider.; type: functional
[9] = Vero cell cytotoxicity, dose response, cytotoxicity control for M. tuberculosis growth inhibitor project, Vero cells, purified and synthesized compounds, set 4 (AID 504854); type: functional; details: Mycobacterium tuberculosis
[10] = target: Sphingosine 1-phosphate receptor 1 (Homo sapiens, UniProt P21453); test: Late-stage fluorescence-based dose-response cell-based counterscreen assay to identify agonists of the Sphingosine 1-Phosphate Receptor 4 (S1P4): Sphingosine 1-Phosphate Receptor 1 (S1P1) agonist assay Set 2.; type: functional
[11] = target: Sphingosine 1-phosphate receptor 5 (Homo sapiens, UniProt Q9H228); test: activation of human S1P5 receptor – cell-based, fluorescence, set 2, counter-screen for S1P4 agonist project, late-stage follow-up (AID 504867); type: functional
[12] = target: Sphingosine 1-phosphate receptor 3 (Homo sapiens, UniProt Q99500); test: Late-stage fluorescence-based dose-response cell-based counterscreen assay to identify agonists of the Sphingosine 1-Phosphate Receptor 4 (S1P4): Sphingosine 1-Phosphate Receptor 3 (S1P3) agonist assay Set 2.; type: functional
[13] = target: Sphingosine 1-phosphate receptor 2 (Homo sapiens, UniProt O95136); test: activation of human S1P2 receptor – cell-based, fluorescence, set 2, counter-screen for S1P4 agonist project, late-stage follow-up (AID 504873); type: functional
Sequence of Sphingosine 1-phosphate receptor 2 (O95136 whole entry): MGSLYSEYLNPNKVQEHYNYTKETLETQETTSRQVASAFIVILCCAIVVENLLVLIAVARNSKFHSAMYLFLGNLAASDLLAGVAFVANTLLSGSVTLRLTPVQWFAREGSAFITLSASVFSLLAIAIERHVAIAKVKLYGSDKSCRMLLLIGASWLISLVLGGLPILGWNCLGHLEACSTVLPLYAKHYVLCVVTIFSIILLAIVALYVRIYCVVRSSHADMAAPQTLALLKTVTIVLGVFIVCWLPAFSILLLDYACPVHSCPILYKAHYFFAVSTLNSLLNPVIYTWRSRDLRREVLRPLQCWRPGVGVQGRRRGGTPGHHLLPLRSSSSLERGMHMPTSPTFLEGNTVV

T2 sequence (O43614 whole entry): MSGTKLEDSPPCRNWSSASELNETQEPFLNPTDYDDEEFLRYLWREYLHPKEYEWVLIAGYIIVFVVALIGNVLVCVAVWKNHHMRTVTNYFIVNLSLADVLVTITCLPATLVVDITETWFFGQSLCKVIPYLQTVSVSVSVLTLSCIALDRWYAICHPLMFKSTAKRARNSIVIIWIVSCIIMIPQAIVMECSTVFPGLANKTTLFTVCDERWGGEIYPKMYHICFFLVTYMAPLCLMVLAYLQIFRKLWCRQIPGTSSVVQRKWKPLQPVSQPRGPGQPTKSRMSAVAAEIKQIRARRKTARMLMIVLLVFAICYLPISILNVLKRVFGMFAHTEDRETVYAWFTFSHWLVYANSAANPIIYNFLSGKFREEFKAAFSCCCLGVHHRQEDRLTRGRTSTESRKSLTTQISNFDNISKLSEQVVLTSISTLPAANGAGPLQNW
T1 sequence (O43613 whole entry): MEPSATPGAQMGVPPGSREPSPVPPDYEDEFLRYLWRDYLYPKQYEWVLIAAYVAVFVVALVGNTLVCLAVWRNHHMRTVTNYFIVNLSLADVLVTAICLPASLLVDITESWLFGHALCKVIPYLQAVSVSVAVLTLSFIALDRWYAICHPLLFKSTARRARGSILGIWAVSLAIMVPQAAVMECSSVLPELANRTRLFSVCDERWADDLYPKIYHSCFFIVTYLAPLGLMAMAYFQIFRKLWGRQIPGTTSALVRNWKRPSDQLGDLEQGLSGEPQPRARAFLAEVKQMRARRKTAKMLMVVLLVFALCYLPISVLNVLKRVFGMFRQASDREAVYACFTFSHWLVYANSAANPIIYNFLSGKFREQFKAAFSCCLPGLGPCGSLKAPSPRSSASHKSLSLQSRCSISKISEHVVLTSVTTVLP
Sequence of Sphingosine 1-phosphate receptor 5 (Q9H228 whole entry): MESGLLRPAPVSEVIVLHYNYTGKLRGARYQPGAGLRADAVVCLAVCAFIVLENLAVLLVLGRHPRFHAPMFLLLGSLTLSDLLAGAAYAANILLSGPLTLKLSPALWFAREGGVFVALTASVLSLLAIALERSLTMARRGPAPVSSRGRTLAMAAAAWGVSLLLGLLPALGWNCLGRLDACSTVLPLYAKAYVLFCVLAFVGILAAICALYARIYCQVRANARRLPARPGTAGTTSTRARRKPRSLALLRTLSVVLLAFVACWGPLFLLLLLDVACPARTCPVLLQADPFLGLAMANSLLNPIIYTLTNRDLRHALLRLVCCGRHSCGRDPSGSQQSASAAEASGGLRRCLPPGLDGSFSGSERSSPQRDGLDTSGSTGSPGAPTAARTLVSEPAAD
Sequence of Sphingosine 1-phosphate receptor 1 (P21453 whole entry): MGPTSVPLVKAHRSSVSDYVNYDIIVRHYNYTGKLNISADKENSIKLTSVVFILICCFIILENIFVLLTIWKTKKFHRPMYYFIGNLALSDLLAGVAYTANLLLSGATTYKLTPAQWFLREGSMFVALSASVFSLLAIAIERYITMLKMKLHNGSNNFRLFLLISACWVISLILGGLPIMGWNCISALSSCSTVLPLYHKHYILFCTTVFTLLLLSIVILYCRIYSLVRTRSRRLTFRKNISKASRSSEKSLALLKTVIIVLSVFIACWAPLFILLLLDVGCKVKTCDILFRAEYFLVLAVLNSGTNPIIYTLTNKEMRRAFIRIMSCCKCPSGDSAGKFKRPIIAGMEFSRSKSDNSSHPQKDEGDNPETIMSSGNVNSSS
Sequence of Sphingosine 1-phosphate receptor 3 (Q99500 whole entry): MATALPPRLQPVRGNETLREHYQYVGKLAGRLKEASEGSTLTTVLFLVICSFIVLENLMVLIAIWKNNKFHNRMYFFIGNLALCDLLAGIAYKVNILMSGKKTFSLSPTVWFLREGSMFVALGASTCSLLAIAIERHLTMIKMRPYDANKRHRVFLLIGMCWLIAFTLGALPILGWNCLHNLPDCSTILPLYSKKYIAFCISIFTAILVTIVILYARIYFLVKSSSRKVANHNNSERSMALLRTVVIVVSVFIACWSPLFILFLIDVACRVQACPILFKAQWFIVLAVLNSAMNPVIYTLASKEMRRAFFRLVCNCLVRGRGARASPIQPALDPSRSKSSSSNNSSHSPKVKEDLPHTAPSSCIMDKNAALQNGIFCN

In the case of `CCSc1nnc(NC(=O)c2ccc3ccccc3n2)s1`, the EC50 [1] is reported as 2.08 µM (active), the EC50 [2] is reported as 6.46 µM (active) and the IC50 [3] is reported as > 66.2 µM (inactive). The IC50 [4] was > 49.7 µM (inactive), the IC50 [5] was 2.67 µM (active) and the IC50 [6] was 6.86 µM (active). For the same compound, the IC50 [7] was > 88.8 µM (inactive) and the IC50 [8] was > 50 µM (inactive).

For `CCC(Sc1nc(O)c2c(n1)CCC2)C(=O)Nc1cccc(OC)c1` (stereo not drawn), the CC50 [9] was > 100 µM (active).

In the case of `CC/N=C1/S/C(=C\c2cc(C)n(-c3ccccc3)c2C)C(=O)N1CC`, the EC50 [10] is reported as 0.0683 µM (active), the EC50 [11] is reported as 0.237 µM (active) and the EC50 [12] is reported as > 25 µM (inactive). For the same compound, the EC50 [13] was > 25 µM (inactive).
